Where a name gives a salt, the structure may show the parent alone.
Key:
[1] = target: T1, human activated blood coagulation factor X (Homo sapiens, UniProt P00742); assay: Measurement of inhibitory activity for activated blood coagulation factor X (S-2222 chromogenic substrate); format: biochemical; details: substrate S-2222, tris-NaCl buffer pH 8.4, 10 minutes at 37° C., absorbance 405 nm
T1 construct: purchased Calbiochem
Procedure: Measurement of Inhibitory Activity for Activated Blood Coagulation Factor X 2.5 μL of a dimethylsulfoxide solution of a test compound, 187.5 μL of 100 mM tris-200 mM NaCl buffer (pH 8.4) and 50 μL of 1 mM S-2222 (Daiichi Pure Chemicals) aqueous solution were poured into 96 well microplate. Then 10 μL of 0.6 U/mL human activated blood coagulation factor X (Calbiochem) in gelatin-glycine buffer was added and the mixture was incubated for 10 minutes at 37° C. The reaction was terminated with the addition of 50 μL of 60% acetic acid and absorbance (405 nm) was measured by a microplate reader (SPECTRAmax250, Molecular Devices). The group with 2.5 μL of the dimethylsulfoxide solution instead of the test compound solution was defined as the control, and the group with 10 μL of the gelatin-glycine buffer solution instead of human activated blood coagulation factor X was defined as the blank.

[2] = target: T2, human thrombin (Homo sapiens, UniProt P00734); assay: Measurement of inhibitory activity for thrombin (S-2238 chromogenic substrate); format: biochemical; details: substrate S-2238, tris-NaCl buffer pH 8.4, 10 minutes at 37° C., absorbance 405 nm
T2 construct: human thrombin (Sigma Chemical Company); purchased Sigma Chemical Company
Procedure: Measurement of Inhibitory Activity for Thrombin
2.5 μL of a dimethylsulfoxide solution of a test compound, 187.5 μL of 100 mM tris-200 mM NaCl buffer (pH 8.4) and 50 μL of 1 mM S-2238 (Daiichi Pure Chemicals) aqueous solution were poured into 96 well microplate. Then 10 μL of 2.0 U/mL human thrombin (Sigma Chemical Company) in gelatin-glycine buffer was added and the mixture was incubated for 10 minutes at 37° C. The reaction was terminated with the addition of 50 μL of 60% acetic acid and absorbance (405 nm) was measured by a microplate reader (SPECTRAmax250, Molecular Devices).
The group with 2.5 μL of the dimethylsulfoxide solution instead of the test compound solution was defined as the control, and the group with 10 μL of the gelatin-glycine buffer solution instead of human thrombin was defined as the blank. The concentration of a test compound that inhibited the absorbance of control by 50% (IC50) was obtained, and this value was used as the index of inhibitory activity for thrombin.

T1 sequence (P00742 235-488 limits assumed): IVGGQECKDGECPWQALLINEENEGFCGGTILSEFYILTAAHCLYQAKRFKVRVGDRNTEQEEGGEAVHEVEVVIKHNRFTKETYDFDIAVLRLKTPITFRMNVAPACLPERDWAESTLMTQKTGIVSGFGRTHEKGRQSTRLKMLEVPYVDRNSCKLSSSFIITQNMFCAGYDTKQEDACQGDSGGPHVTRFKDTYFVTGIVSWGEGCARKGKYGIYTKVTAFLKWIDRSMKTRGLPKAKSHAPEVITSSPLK
T1 sequence (P00742 41-179 partner limits assumed): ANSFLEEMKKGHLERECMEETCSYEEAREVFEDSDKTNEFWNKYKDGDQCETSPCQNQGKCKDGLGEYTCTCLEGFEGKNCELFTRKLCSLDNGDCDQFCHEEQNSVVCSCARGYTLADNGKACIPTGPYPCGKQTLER

Compound | IC50 [1] [µM] | IC50 [2] [µM]
CC(C)c1ccc(CCNS(=O)(=O)c2cc(C(=N)N)ccc2O)c(NCC(=O)O)c1 [Compound 18, [[2-[2-(5-Carbamimidoyl-2-hydroxybenzenesulfonylamino)ethyl]-5-isopropylphenyl]amino]acetic acid] | 0.077 | > 100
CS(=O)(=O)c1ccccc1-c1ccc(CCNS(=O)(=O)c2cc(C(=N)N)ccc2O)c(NCC(=O)O)c1 [Compound 17, [[4-[2-(5-Carbamimidoyl-2-hydroxybenzenesulfonylamino)ethyl]-2′-methanesulfonylbiphenyl-3-yl]amino]acetic aid hydrochloride] | 0.0071 | 37

— patent publication US7022689B2, “5-amidino-n-(2-aminophenethyl)-n-hydroxy-benzenesulffonamide derivative, medical composition containing the same, pharmaceutical use thereof and intermediate therefor” (Kissei Pharmaceutical Co., Ltd., priority 2001, dated 2006)
